The text below walks through data of ChEMBL document CHEMBL4196212, “Targeting Cytochrome P450 (CYP) 1B1 Enzyme with Four Series of A-Ring Substituted Estrane Derivatives: Design, Synthesis, Inhibitory Activity, and Selectivity” (J Med Chem, 2018).

pIC50: −log10 of the molar value.

In data set [1] the target is T1, Cytochrome P450 1B1 (Homo sapiens, UniProt Q16678).
T1 sequence (Q16678 whole entry): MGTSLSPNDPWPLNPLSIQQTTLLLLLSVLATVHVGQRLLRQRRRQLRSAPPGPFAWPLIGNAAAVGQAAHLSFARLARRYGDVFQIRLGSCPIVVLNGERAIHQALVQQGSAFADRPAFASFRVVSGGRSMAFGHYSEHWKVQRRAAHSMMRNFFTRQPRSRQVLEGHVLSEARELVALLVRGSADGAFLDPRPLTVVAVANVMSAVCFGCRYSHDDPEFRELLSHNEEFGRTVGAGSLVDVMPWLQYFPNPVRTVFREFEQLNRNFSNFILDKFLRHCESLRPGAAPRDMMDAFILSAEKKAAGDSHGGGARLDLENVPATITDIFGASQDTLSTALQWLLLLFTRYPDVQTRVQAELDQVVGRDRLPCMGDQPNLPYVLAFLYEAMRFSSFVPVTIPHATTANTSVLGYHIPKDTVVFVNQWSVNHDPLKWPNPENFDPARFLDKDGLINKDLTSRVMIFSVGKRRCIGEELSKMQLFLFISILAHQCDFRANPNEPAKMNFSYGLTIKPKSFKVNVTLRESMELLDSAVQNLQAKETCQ
The data set is described as follows: Inhibition of recombinant human CYP1B1 incubated for 45 mins using 7-ethyl-O-resorufin substrate in presence of NADPH regenerating system by fluorescence based ethoxyresorufin-O-deethylase assay.

The target in data set [2] is T2, CYP1B1 (Homo sapiens, UniProt Q16678).
T2 sequence (Q16678 whole entry): T1 sequence (Q16678 whole entry)
The data set can be described thus: Inhibition of recombinant human CYP1B1 at 3 uM incubated for 45 mins using 7-ethyl-O-resorufin substrate in presence of NADPH regenerating system by fluorescence based ethoxyresorufin-O-deethylase assay. Particulars: recombinant human CYP1B1, probe 7-ethyl-O-resorufin (7-ethoxyresorufin).

In data set [3] the target is T3, Cytochrome P450 1A1 (Homo sapiens, UniProt P04798).
T3 sequence (P04798 whole entry): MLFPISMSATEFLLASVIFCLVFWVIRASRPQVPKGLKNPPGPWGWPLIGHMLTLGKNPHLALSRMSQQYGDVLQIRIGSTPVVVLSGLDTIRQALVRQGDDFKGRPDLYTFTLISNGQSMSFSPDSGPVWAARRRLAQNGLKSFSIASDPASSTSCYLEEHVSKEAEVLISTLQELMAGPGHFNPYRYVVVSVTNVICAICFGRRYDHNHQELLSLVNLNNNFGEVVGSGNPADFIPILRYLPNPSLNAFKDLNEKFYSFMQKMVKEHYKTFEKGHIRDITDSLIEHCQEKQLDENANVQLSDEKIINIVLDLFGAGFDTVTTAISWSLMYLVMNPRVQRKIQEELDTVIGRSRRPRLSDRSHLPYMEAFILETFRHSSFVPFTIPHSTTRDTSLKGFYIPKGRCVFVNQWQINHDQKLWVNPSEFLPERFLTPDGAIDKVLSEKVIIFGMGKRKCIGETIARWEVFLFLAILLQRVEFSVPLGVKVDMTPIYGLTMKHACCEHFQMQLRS
The data set is described as follows: Inhibition of recombinant human CYP1A1 incubated for 25 mins using 7-ethyl-O-resorufin substrate in presence of NADPH regenerating system by fluorescence based ethoxyresorufin-O-deethylase assay. It is filed as ADME.

The species named for data set [4] is Homo sapiens. The data set is described as follows: Selectivity index, ratio of IC50 for inhibition of recombinant human CYP1A1 to IC50 for inhibition of recombinant human CYP1B1.
Data set [5] addresses T2, CYP1B1. The data set can be described thus: Inhibition of recombinant human CYP1B1 at 0.3 uM incubated for 45 mins using 7-ethyl-O-resorufin substrate in presence of NADPH regenerating system by fluorescence based ethoxyresorufin-O-deethylase assay. Particulars: recombinant human CYP1B1, probe 7-ethyl-O-resorufin (7-ethoxyresorufin).
The target in data set [6] is T4, CYP1A1 (Homo sapiens, UniProt P04798).
T4 sequence (P04798 whole entry): T3 sequence (P04798 whole entry)
The data set can be described thus: Inhibition of recombinant human CYP1A1 at 3 uM incubated for 25 mins using 7-ethyl-O-resorufin substrate in presence of NADPH regenerating system by fluorescence based ethoxyresorufin-O-deethylase assay. It is filed as ADME. The settings on record: recombinant human CYP1A1, probe 7-ethyl-O-resorufin (7-ethoxyresorufin).

The target in data set [7] is T4, CYP1A1. The data set is described as follows: Inhibition of recombinant human CYP1A1 at 0.3 uM incubated for 25 mins using 7-ethyl-O-resorufin substrate in presence of NADPH regenerating system by fluorescence based ethoxyresorufin-O-deethylase assay. It is filed as ADME. Particulars: recombinant human CYP1A1, probe 7-ethyl-O-resorufin (7-ethoxyresorufin).

What is called pIC50 is the IC50 on a negative log10 scale, so that one unit is a factor of ten. What is called inhibition is the drop in the measured response relative to a control, in per cent. Regarding `C[C@]12CC[C@@H]3c4cc(-c5ccc(F)cc5)c(O)cc4CC[C@H]3[C@@H]1CC[C@@H]2O`, the pIC50 in data set [1] is 6.62; in data set [3] it was 5.31. In addition, in data set [2], the inhibition at 0.75 h, 3 µM came out at 103%. The Ratio IC50 in data set [4] came to 20. In data set [5], the inhibition at 0.75 h, 0.3 µM is 91%. Besides, in data set [6], the inhibition at 25 min, 3 µM was found to be 0%. Besides, in data set [7], the inhibition at 25 min, 0.3 µM is 3%.

As to `C[C@]12CC[C@@H]3c4cc(-c5ccncc5)c(O)cc4CC[C@H]3[C@@H]1CC[C@@H]2O`, the pIC50 in data set [1] was 6.62; in data set [3], 5.41. The inhibition at 0.75 h, 3 µM in data set [2] came to 102%. The Ratio IC50 in data set [4] came to 16. In addition, the inhibition at 25 min, 3 µM in data set [6] came out at 14%. In addition, the inhibition at 25 min, 0.3 µM in data set [7] was 5%.

In the case of `C#C[C@]1(O)CC[C@H]2[C@@H]3CCc4cc(O)c(-c5ccc(OC)cc5)cc4[C@H]3CC[C@@]21C`, the figures for the pIC50 in data set [1] and in data set [3] were 6.43 and 5.04, respectively. For the same compound, the inhibition at 0.75 h, 3 µM in data set [2] came to 94%. Further, the Ratio IC50 in data set [4] is 25. In addition, the inhibition at 0.75 h, 0.3 µM in data set [5] was 58%. Besides, the inhibition at 25 min, 3 µM in data set [6] is 23%. In addition, the inhibition at 25 min, 0.3 µM in data set [7] is 7%.

As for `O=c1cc(-c2ccccc2)oc2c1ccc1ccccc12` [ALPHA-NAPHTHOFLAVONE], in data set [2], the inhibition at 0.75 h, 3 µM was determined as 101%. Besides, in data set [3], the pIC50 was 5.57. Also, the inhibition at 25 min, 3 µM in data set [6] was 75%. Further, the inhibition at 25 min, 0.3 µM in data set [7] is 30%.

Turning to `COc1ccc(-c2cc3c(cc2OC)CC[C@@H]2[C@@H]3CC[C@]3(C)C(=O)CC[C@@H]23)cc1`, in data set [2], the inhibition at 0.75 h, 3 µM is 79%. For the same compound, the inhibition at 0.75 h, 0.3 µM in data set [5] is 38%. The inhibition at 25 min, 3 µM in data set [6] was 4%. In data set [7], the inhibition at 25 min, 0.3 µM is 1%.

For `COc1ccc(-c2cc3c(cc2O)CC[C@@H]2[C@@H]3CC[C@]3(C)[C@@H](O)CC[C@@H]23)cc1`, in data set [2], the inhibition at 0.75 h, 3 µM worked out at 100%. In addition, the inhibition at 0.75 h, 0.3 µM in data set [5] was found to be 97%. The inhibition at 25 min, 3 µM in data set [6] came to 51%. For the same compound, the inhibition at 25 min, 0.3 µM in data set [7] came to 14%.
